Marks after values point to notes of the source that are not given here.
What was measured:
[1] = system: rat primary hippocampal neurons injured with Aβ 1-42; assay: Neurite network of MAP-2 neurons in primary culture of hippocampal neurons injured with Aβ 1-42; type: cell-based; settings: for Neurite network / Neurite/neuron: Aβ1-42 20 μM/2.5 μM, percentage of control, Example 3
Method: Rat hippocampal neurons were cultured as described by Callizot et al. (2013) J. Neurosci. Res. 91706-716. Pregnant female rats of 17 days gestation (Rats Wistar; Janvier Labs France) were killed using a deep anesthesia with CO2 chamber followed by a cervical dislocation. Then, fetuses were removed from the uterus and immediately placed in ice-cold L15 Leibovitz medium with a 2% penicillin (10,000 U/ml) and streptomycin (10 mg/ml) solution (PS) and 1% bovine serum albumin (BSA). Hippocampal neurons were treated for 20 min at 37° C. with a trypsin-EDTA solution at a final concentration of 0.05% trypsin and 0.02% EDTA. The dissociation was stopped by adding Dulbecco's modified Eagle's medium (DMEM) with 4.5 g/l of glucose, containing DNAse I grade 11 (final concentration 0.5 mg/ml) and 10% fetal calf serum (FCS). Cells were mechanically dissociated by three forced passages through the tip of a 10-ml pipette and then centrifuged at 515×g for 10 min at 4° C. The supernatant was discarded, and the pellet was resuspended in a defined culture medium consisting of Neurobasal medium with a 2% solution of B27 supplement, 2 mmol/l of L-glutamine, 2% of PS solution, and 10 ng/ml of brain-derived neurotrophic factor (BDNF). Viable cells were counted in a Neubauer cytometer, using the trypan blue exclusion test. […] The medium was changed every 2 days.
The hippocampal neurons were exposed with Aβ solutions (see below) after 17 days of culture. The Aβ1-42 preparation was done following the procedure described by Callizot et al. (2013) J. Neurosci. Res. 91706-716. Briefly, Aβ1-42 peptide was dissolved in the defined culture medium mentioned above, at an initial concentration of 40 μM. This solution was gently agitated for 3 days at 37° C. in the dark and immediately used after being properly diluted in culture medium to the concentrations used (20 μM (plate 1) or 2.5 μM (plate 2) corresponding to 2 μM or 0.25 μM of oligomers (AβO) respectively).
Donecopride fumarate was solved in culture medium and preincubated 1 h before Aβ application. Aβ1-42 preparation was added to a final concentration of 20 or 2.5 μM (=2 μM or 0.25 μM of AβO, evaluated by automatic Western Blot) diluted in control medium in presence of Donecopride.
Donecopride fumarate (Donecopride) was tested on one culture in a 96 well plate (6 wells per conditions). The compound was preincubated one hour before […] application. The following conditions were assessed:
After permeabilization with 0.1% of saponin, cells were incubated for 2 h with:
a) chicken polyclonal antibody anti microtubule-associated-protein 2 (MAP-2), diluted at 1/1000 in PBS containing 1% fetal calf serum and 0.1% of saponin (this antibody allows the specific staining of neuronal cell bodies and neurites; and allow the study of neuronal cell death and neurite network).
For each condition, 30 pictures (representative of the whole well area) per well were taken using ImageXpress (Molecular Devices) at 20× magnification. All images were taken with the same acquisition parameters. Analyses were performed automatically by using Custom Module Editor (Molecular Devices).
Neurite network (in μm of MAP-2 positive neurons)
The neurite network is proportional to the number of neurons in the culture. The total neurite network was normalized by the number of neurons, in order to determine the average length of neurite per neurons.
Rat hippocampal neurons were cultured as described by Callizot et al. (2013) J. Neurosci. Res. 91:706-716. Briefly, pregnant female rats of 17 days gestation (Rats Wistar; Janvier Labs France) were killed using a deep anesthesia with CO2 chamber and a cervical dislocation. Then, fetuses were removed from the uterus and immediately placed in ice-cold L15 Leibovitz medium with a 2% penicillin (10,000 U/ml) and streptomycin (10 mg/ml) solution (PS) and 1% bovine serum albumin (BSA). The hippocampi were treated for 20 min at 37° C. with a trypsin-EDTA solution at a final concentration of 0.05% trypsin and 0.02% EDTA. […]

5XFAD mice [2] = assay: Aβ42 concentration in cerebrospinal fluid of chronically treated 5XFAD mice; type: in vivo, mouse; settings: 1 mg/kg twice a week for 3 months, versus controls
Method: (§1) 5XFAD mice received chronic treatments with drugs or vehicle according to 2 different protocols. In each experiment, drugs or vehicle solution were administered i.p. twice a week (1 mg/kg). In “Protocol 1”, mice (n=6-7 mice per group) were treated with compounds for two months, from 2 to 4 months of age. In “Protocol 2”, mice (n=7) were treated with compounds for three months, from 1 month to 4 months of age. At the end of each protocol, mice were anesthetized with a mixture of 100 mg/kg ketamine and 10 mg/kg xylazine in saline solution and perfused transcardially with PBS. Brains were quickly isolated on ice, the olfactory bulbs and cerebellum removed and the two hemispheres divided. One hemisphere was frozen on dry ice and stored at −80° C. for biochemical analysis, while the other was post-fixed in 4% PFA for immunohistochemistry (IHC).
28 female 5XFAD mice (C57BL/6J genetic background) were used in this study. Mice received vehicle or compounds (1 mg/kg) i.p., twice a week for three months, from 1 to 4 months of age.

5XFAD mice [3] = assay: Amyloid plaque number (thioflavin T staining) in brain sections of 5XFAD mice; type: in vivo, mouse; settings: 1 mg/kg twice a week for 3 months, versus controls
Method: as §1
Thirty-micrometer-thick sections were cut using a vibratome (Microm HM 650V, Thermo Scientific, Saint Herblain, France) and stored in cryoprotectant medium at −20° C. […]
Images were acquired with an Axiolmager Z1 microscope (Carl Zeiss S.A.S., Marly le Roi, France). […] GFAP expression was quantified using Image J software and results are expressed as area fractions. […]

Compound `COc1cc2c(cc1OC)C(=O)C(CC1CCN(Cc3ccccc3)CC1)C2` (centres unmarked) [Donepezil] has a Neurite network ([1]; donepezil 100 pM) of 68%, a Neurite/neuron ([1]; donepezil 100 pM) of 99% and a Neurite network ([1]; donepezil 1 nM) of 75%*. It also gave a Neurite/neuron ([1]; donepezil 1 nM) of 99%, a Neurite network ([1]; donepezil 10 nM) of 79%* and a Neurite/neuron ([1]; donepezil 10 nM) of 91%. For the same compound, the Neurite network ([1]; donepezil 50 nM) was 85%*, the Neurite/neuron ([1]; donepezil 50 nM) was 94% and the Neurite network ([1]; donepezil 100 nM) was 85%*. It also gave a Neurite/neuron ([1]; donepezil 100 nM) of 94%, a Neurite network ([1]; donepezil 500 nM) of 87%* and a Neurite/neuron ([1]; donepezil 500 nM) of 101%. It also gave a Neurite network ([1]; donepezil 1 μM) of 90%*, a Neurite/neuron ([1]; donepezil 1 μM) of 105%* and a Neurite network ([1]; donepezil 10 μM) of 88%*. It also gave a Neurite/neuron ([1]; donepezil 10 μM) of 103%*.
`CCCCN1CCC(CCC(=O)c2cc(Cl)c(N)cc2OC)CC1` [RS67333, 1-(4-amino-5-chloro-2-methoxy-phenyl)-3-(1-butyl-4-piperidinyl)-1-propanone] was tested, and the “Lowest protective active dose: neurite network” value ([1]; Aβ 1-42 injured hippocampal neurons, Example 3 step 1) was 10 nM, the “Average length of neurites per neurons (FIG. 1C)” value ([1]; RS67333 alone, Aβ 1-42 injured hippocampal neurons, Example 3 step 1) was “protective effects” and the “Aβ42 concentration in cerebrospinal fluid (CSF)” value (5XFAD mice [2]) was “not significantly different compared to controls”. For the same compound, the “Amyloid plaque number in hippocampus” value (5XFAD mice [3]) was “not significantly different compared to controls”.

— US20210338647A1, “Combination of Acetylcholinesterase Inhibitor and 5-HT4 Receptor Agonist As Neuroprotective Agent In the Treatment of Neurodegenerative Diseases” (UNIVERSITE DE CAEN NORMANDIE, priority 2018, published 2021)
